{"source": "patent US20030004131A1", "about": "“OENOTHEIN MEDICAMENTS” (priority 1999, published 2003)", "key": {"[1]": {"assay": "xanthine oxidase/acetaldehyde spectrophotometric superoxide radical scavenging method", "format": "biochemical", "protocol": "The scavenging of free superoxide radicals is quantitated spectrometrically and expressed in terms of percentage of radicals scavenged. Assays were performed with 1% (w/v) and 0.1% (w/v) dilutions of the dried extract, which yielded up to 100% scavenging activity and up to 99% scavenging activity respectively."}, "[2]": {"system": "hen's-egg chorioallantoic membrane (CAM)", "assay": "hen's-egg chorioallantoic membrane (CAM) irritation model with 15% lactic acid as standard irritant", "format": "in vivo", "conditions": "CAM treated with 15% lactic acid; sample applied before the irritant (prophylactic use); oenothein-B tested at 1% (weight to volume) dilution", "protocol": "In the hen's-egg chorioallantoic membrane (CAM) model, in which the CAM is treated with 15% lactic acid as a standard irritant, the development of manifestations of membrane irritation were tracked and scored according to published methods for assessing irritancy (Luepke and Kemper, 1986, Food and Chemical Toxicology 24:495; Spielmann et al. 1997, Food and Chemical Toxicology 35:39). A sample of the oenothein-B extract from Canadian Willowherb described in Example 1 was tested at a 1% (weight to volume) dilution for activity in the CAM model."}}, "data": [{"substance": "oenothein-B", "values": [{"measurement": "scavenging activity (percentage of radicals scavenged)", "setting": "[1]; 0.1% (w/v) dilution of the dried extract", "result": "up to 99%"}, {"measurement": "scavenging activity (percentage of radicals scavenged)", "setting": "[1]; 1% (w/v) dilution of the dried extract", "result": "up to 100%"}, {"measurement": "decrease in irritation", "setting": "[2]", "result": "up to 70%"}]}]}
